# Test results reported in publication PMC7179259, “Safety, Tolerability, Pharmacokinetics, and Antimalarial Activity of the Novel Plasmodium Phosphatidylinositol 4-Kinase Inhibitor MMV390048 in Healthy Volunteers” (Antimicrobial Agents and Chemotherapy, 2020).
# Experiments:
# healthy subjects = assay: Formulation optimization study: safety; assay type: in vivo, human; details: both tablet formulations
# Protocol: The third study was a formulation optimization study to test two MMV390048 tablet formulations (tartaric acid and Syloid). The formulation optimization study was conducted at Richmond Pharmacology Ltd. (London, United Kingdom) from 17 September to 28 October 2015. This was a phase 1, open-label, single-dose, parallel-group, two-cohort design study.
# (iii) Formulation optimization study. Subjects received one of two tablet formulations (formulation A, tartaric acid tablets; formulation B, Syloid tablets; manufactured by Quotient Clinical, United Kingdom) on day 1, after an ≥8-h fasting period, at a dose of 40 mg with 240 ml of water. Subjects were followed up until day 29.
# Safety endpoints were the incidence, severity, and relationship to the investigational product (and inoculum for the IBSM study) of observed and self-reported adverse events (AEs), and changes from baseline in physical examination, vital signs, standard electrocardiograms (ECGs), continuous ECGs (first-in-human study only), and laboratory evaluation (hematology, coagulation parameters, hemolysis panel, clinical chemistry, and urinalysis) findings. […] AE severity was evaluated according to the Common Terminology Criteria for Adverse Events version 4.03 ([18]) and the World Health Organization recommendations for grading acute and subacute toxic effects ([19]).
# [1] = Stability in human plasma and whole blood (bioanalytical validation); assay type: in vitro ADME
# Text: page 28: Determination of MMV390048 from 50 µ L human plasma by LC -MS/MS A method was validated for the quantification of MMV390048 in human plasma, and consisted of a protein precipitation extraction, followed by high performance liquid chromatography with MS/MS detection. MMV390048- d3 was used as the internal standard. Analyte mean extraction yield was approximately 106.5 % (CV% = 6.2). The extraction procedure was followed by liquid chromatographic separation using a Waters Atlantis T3 3 μm, 100 x 2.1 mm analytical column. An isocratic mobile phase containing water:acetonitrile (25:75 [v/v]) was used at a flow-rate of 300 μL/min. The retention times for MMV390048 and MMV390048- d3 were 1.16 min and 1.16 min, respectively. An AB Sciex API 4000 mass spectrometer at unit resolution in the multiple reaction monitoring mode was used to monitor the transition of the protonated precursor ions, 394.145 m/z and 397.148 m/z, to the product ions, 297.0 m/z and 297.0 m/z, for MMV390048 and the internal standard, respectively. Electro -spray ionisation was used for ion production. Accuracy and precision were assessed over three consecutive, independent runs. The calibration curve fits a quadratic (weighted by 1/x) regressions for MMV390048 over the ranges 0.500 –2000 ng/mL, based on peak area ratios. The assay was successfully cross- validated on a second/back- up API 4000 instrument. […] Stock solutions of MMV390048 in dimethylsulfoxide was stable for 67 days when stored at -80°C and for 24 hours when stored at room temperature, 4°C and - 20°C. […] Samples with haemolysis greater than 1% were assayed in duplicate to confirm results.
smiles,measurement,setting,value
CS(=O)(=O)c1ccc(-c2cnc(N)c(-c3ccc(C(F)(F)F)nc3)c2)cc1 [MMV390048],total AEs reported,healthy subjects; 18 subjects,11
same,subjects with AEs,healthy subjects; of 18 subjects,7
same,stable in human plasma when subjected to freeze-thaw cycles,[1]; freeze-thaw cycles,3
same,stable in whole blood for up to,[1]; on ice,1 h
same,stable in human plasma for,[1]; room temperature,6 h
same,stable in human plasma for up to,[1]; stored at approximately -80°C,79 days
